In ChEMBL document CHEMBL5608163, “Structure modification of anoplin for fighting resistant bacteria” (Eur J Med Chem, 2024):
Values after ≈ are worked out from the molar mass of the structure shown. Square brackets hold non-standard residues; d marks the D form. Peptide text beside a SMILES is read from it. βAla = NCCC(=O)O

Legend:
Staphylococcus aureus [1] = test: Antibacterial activity against Staphylococcus aureus ATCC 25923 assessed as reduction in bacterial cell growth incubated for 18 hrs by two fold serial microdilution method; type: functional
[2] = test system: Staphylococcus epidermidis; test: Antibacterial activity against Staphylococcus epidermidis ATCC 12228 assessed as reduction in bacterial cell growth incubated for 18 hrs by two fold serial microdilution method; type: functional
Escherichia coli [3] = test: Antibacterial activity against Escherichia coli ATCC 25922 assessed as reduction in bacterial cell growth incubated for 18 hrs by two fold serial microdilution method; type: functional
Pseudomonas aeruginosa [4] = test: Antibacterial activity against Pseudomonas aeruginosa ATCC 27853 assessed as reduction in bacterial cell growth incubated for 18 hrs by two fold serial microdilution method; type: functional
Klebsiella pneumoniae [5] = test: Antibacterial activity against Klebsiella pneumoniae ATCC 700603 assessed as reduction in bacterial cell growth incubated for 18 hrs by two fold serial microdilution method; type: functional
Acinetobacter baumannii = test: Antibacterial activity against Acinetobacter baumannii ATCC 19606 assessed as inhibition in bacterial growth incubated for 20 to 24 hrs by CLSI based broth microdilution method; type: functional; conditions: time 20-24 hrs
Erythrocyte [6] = test: Hemolytic activity in mouse Red blood cells incubated for 1 hr; type: toxicity, cell-based
Staphylococcus aureus [7] = test: Antibacterial activity against Staphylococcus aureus ATCC 25923 assessed as reduction in bacterial growth incubated for 18 to 20 hrs by Mueller Hinton broth dilution method; type: functional; conditions: time 18-20 hrs
Bacillus subtilis = test: Antibacterial activity against Bacillus subtilis ATCC 23857 assessed as reduction in bacterial growth incubated for 18 to 20 hrs by Mueller Hinton broth dilution method; type: functional; conditions: time 18-20 hrs
Escherichia coli [8] = test: Antibacterial activity against Escherichia coli ATCC 25922 assessed as reduction in bacterial growth incubated for 18 to 20 hrs by Mueller Hinton broth dilution method; type: functional; conditions: time 18-20 hrs
Pseudomonas aeruginosa [9] = test: Antibacterial activity against Pseudomonas aeruginosa ATCC 27853 assessed as reduction in bacterial growth incubated for 18 to 20 hrs by Mueller Hinton broth dilution method; type: functional; conditions: time 18-20 hrs
Klebsiella pneumoniae [10] = test: Antimicrobial activity against Klebsiella pneumoniae assessed as reduction in bacterial growth incubated for 18 to 20 hrs by Mueller-Hinton broth based microdilution method; type: functional; conditions: time 18-20 hrs
Erythrocyte [11] = test: Hemolytic activity in mouse Red blood cells incubated for 1 hr by microplate reader assay; type: toxicity, cell-based; conditions: erythrocyte, 1 h

MIC (Staphylococcus aureus [1]) [µM] | MIC [2] [µM] | MIC (Escherichia coli [3]) [µM] | MIC (Pseudomonas aeruginosa [4]) [µM] | MIC (Klebsiella pneumoniae [5]) [µM] | MIC (Acinetobacter baumannii) [µM] | SMILES | HC10 (Erythrocyte [6]) [µM] | MIC (Staphylococcus aureus [7]) [µM] | MIC (Bacillus subtilis) [µM] | MIC (Escherichia coli [8]) [µM] | MIC (Pseudomonas aeruginosa [9]) [µM] | MIC (Klebsiella pneumoniae [10]) [µM] | HC10 (Erythrocyte [11]) [µM]
128 (≈ 146 µg/mL) | 64 (≈ 72.8 µg/mL) | 64 (≈ 72.8 µg/mL) | 64 (≈ 72.8 µg/mL) | 64 (≈ 72.8 µg/mL) | > 128 | CC[C@H](C)[C@H](NC(=O)[C@H](CCCNC(=N)N)NC(=O)[C@H](CCCCN)NC(=O)[C@H](CC(C)C)NC(=O)[C@H](CC(C)C)NC(=O)CCN)C(=O)N[C@@H](CCCCN)C(=O)NCCC(=O)N[C@@H](CC(C)C)C(=O)N[C@@H](CC(C)C)C(N)=O (H-[βAla]LLKRIK[βAla]LL-NH2) | > 256 | – | – | – | – | – | –
> 128 | > 128 | > 128 | > 128 | > 128 | > 128 | CC[C@H](C)[C@H](NC(=O)[C@H](CCCNC(=N)N)NC(=O)[C@H](CCCCN)NC(=O)[C@H](CC(C)C)NC(=O)[C@H](CC(C)C)NC(=O)CN)C(=O)N[C@@H](CCCCN)C(=O)N[C@H](C(=O)N[C@@H](CC(C)C)C(=O)NCCC(N)=O)[C@@H](C)O (H-GLLKRIKTL[βAla]-NH2) | > 256 | – | – | – | – | – | –
– | – | – | – | – | – | CC[C@H](C)[C@H](NC(=O)[C@H](CCCNC(=N)N)NC(=O)[C@H](CCCCN)NC(=O)[C@H](CC(C)C)NC(=O)[C@H](CC(C)C)NC(=O)CN)C(=O)N[C@H](CCCCN)C(=O)N[C@@H](C(=O)N[C@@H](CC(C)C)C(=O)N[C@@H](CC(C)C)C(N)=O)[C@H](C)O | – | > 256 | 64 (≈ 73.8 µg/mL) | > 25 | 128 (≈ 148 µg/mL) | > 256 | > 300
– | – | – | – | – | – | CC[C@H](C)[C@H](NC(=O)[C@H](CCCNC(=N)N)NC(=O)[C@H](CCCCN)NC(=O)[C@@H](CC(C)C)NC(=O)[C@@H](CC(C)C)NC(=O)CN)C(=O)N[C@@H](CCCCN)C(=O)N[C@H](C(=O)N[C@@H](CC(C)C)C(=O)N[C@@H](CC(C)C)C(N)=O)[C@@H](C)O | – | > 256 | 16 (≈ 18.5 µg/mL) | 128 (≈ 148 µg/mL) | 8 (≈ 9.23 µg/mL) | > 256 | > 300
> 128 | 32 (≈ 34.2 µg/mL) | > 128 | 16 (≈ 17.1 µg/mL) | > 128 | > 128 | CC[C@H](C)[C@H](NC(=O)CCNC(=O)[C@H](CCCCN)NC(=O)[C@H](CC(C)C)NC(=O)[C@H](CC(C)C)NC(=O)CN)C(=O)N[C@@H](CCCCN)C(=O)N[C@H](C(=O)N[C@@H](CC(C)C)C(=O)N[C@@H](CC(C)C)C(N)=O)[C@@H](C)O (H-GLLK[βAla]IKTLL-NH2) | > 256 | – | – | – | – | – | –
– | – | – | – | – | – | CC[C@H](C)[C@H](NC(=O)[C@H](CCCNC(=N)N)NC(=O)[C@@H](CCCCN)NC(=O)[C@H](CC(C)C)NC(=O)[C@H](CC(C)C)NC(=O)CN)C(=O)N[C@@H](CCCCN)C(=O)N[C@@H](C(=O)N[C@@H](CC(C)C)C(=O)N[C@@H](CC(C)C)C(N)=O)[C@H](C)O | – | > 256 | 32 (≈ 36.9 µg/mL) | 256 (≈ 295 µg/mL) | 128 (≈ 148 µg/mL) | > 256 | –
– | – | – | – | – | – | CC[C@H](C)[C@H](NC(=O)[C@H](CCCNC(=N)N)NC(=O)[C@H](CCCCN)NC(=O)[C@@H](CC(C)C)NC(=O)[C@H](CC(C)C)NC(=O)CN)C(=O)N[C@@H](CCCCN)C(=O)N[C@H](C(=O)N[C@H](CC(C)C)C(=O)N[C@@H](CC(C)C)C(N)=O)[C@@H](C)O | – | > 256 | 16 (≈ 18.5 µg/mL) | 32 (≈ 36.9 µg/mL) | 8 (≈ 9.23 µg/mL) | 256 (≈ 295 µg/mL) | > 300
64 (≈ 70.2 µg/mL) | 32 (≈ 35.1 µg/mL) | 64 (≈ 70.2 µg/mL) | 32 (≈ 35.1 µg/mL) | 128 (≈ 140 µg/mL) | > 128 | CC[C@H](C)[C@H](NC(=O)[C@H](CCCNC(=N)N)NC(=O)[C@H](CCCCN)NC(=O)[C@H](CC(C)C)NC(=O)[C@H](CC(C)C)NC(=O)CN)C(=O)NCCC(=O)N[C@H](C(=O)N[C@@H](CC(C)C)C(=O)N[C@@H](CC(C)C)C(N)=O)[C@@H](C)O (H-GLLKRI[βAla]TLL-NH2) | > 256 | – | – | – | – | – | –
– | – | – | – | – | – | CC[C@H](C)[C@H](NC(=O)[C@H](CCCNC(=N)N)NC(=O)[C@H](CCCCN)NC(=O)[C@@H](CC(C)C)NC(=O)[C@H](CC(C)C)NC(=O)CN)C(=O)N[C@@H](CCCCN)C(=O)N[C@H](C(=O)N[C@H](CC(C)C)C(=O)N[C@H](CC(C)C)C(N)=O)[C@@H](C)O | – | 64 (≈ 73.8 µg/mL) | 8 (≈ 9.23 µg/mL) | 256 (≈ 295 µg/mL) | 8 (≈ 9.23 µg/mL) | 64 (≈ 73.8 µg/mL) | > 300
– | – | – | – | – | – | CC[C@H](C)[C@H](NC(=O)[C@@H](CCCNC(=N)N)NC(=O)[C@H](CCCCN)NC(=O)[C@H](CC(C)C)NC(=O)[C@H](CC(C)C)NC(=O)CN)C(=O)N[C@@H](CCCCN)C(=O)N[C@@H](C(=O)N[C@@H](CC(C)C)C(=O)N[C@@H](CC(C)C)C(N)=O)[C@H](C)O | – | > 256 | 32 (≈ 36.9 µg/mL) | 256 (≈ 295 µg/mL) | 128 (≈ 148 µg/mL) | > 256 | > 300
